Test results as given in US20240067668A1, “HETEROARYL DERIVATIVE COMPOUND AND USE THEREOF” (VORONOI INC., priority 2020, published 2024).

Experiments:
EGFR Del19/T790M/C797S = EGFR Del19/T790M/C797S (Homo sapiens, UniProt P00533, C797S/T790M, form not given); experiment: Enzyme IC50, EGFR Del19/T790M/C797S; assay type: biochemical
EGFR (G719C) = target: T1, EGFR (G719C) (Homo sapiens, UniProt P00533, G719C); experiment: scanMAX Kinase analysis panel (DiscoverX), control percentage; assay type: binding; details: 1 μM in DMSO
T1 construct: purchased DiscoverX
Procedure: (§1) The following experiments were performed to evaluate the inhibitory activity of compounds according to the present invention against various enzymes. Specifically, with respect to the compound of Example 2 selected from the Example Compounds of the present invention, the enzyme (kinase) selectivity was measured by requesting DiscoverX company, and the experiment was conducted using a scanMAX™ Kinase analysis panel. Here, the concentration of the drug treated with the enzyme was 1 μM in DMSO, and the control percentage (% control) was determined by the following Equation 1.
(§2) (Example Compound−positive control)/(negative control−positive control)×100 [Equation 1]
(§3) Here, the positive control indicates a compound showing the control percentage of 0%, and the negative control indicates DMSO showing the control percentage of 100%. Further, regarding the enzyme selectivity of the present invention, when the control percentage for each enzyme was <30% (i.e., less than 30%), the compound was determined to have the activity against the corresponding enzyme.

EGFR = target: T2, EGFR (Homo sapiens, UniProt P00533); experiment: as above; assay type: binding; details: 1 μM in DMSO
T2 construct: purchased DiscoverX
T2 sequence (P00533 25-1210): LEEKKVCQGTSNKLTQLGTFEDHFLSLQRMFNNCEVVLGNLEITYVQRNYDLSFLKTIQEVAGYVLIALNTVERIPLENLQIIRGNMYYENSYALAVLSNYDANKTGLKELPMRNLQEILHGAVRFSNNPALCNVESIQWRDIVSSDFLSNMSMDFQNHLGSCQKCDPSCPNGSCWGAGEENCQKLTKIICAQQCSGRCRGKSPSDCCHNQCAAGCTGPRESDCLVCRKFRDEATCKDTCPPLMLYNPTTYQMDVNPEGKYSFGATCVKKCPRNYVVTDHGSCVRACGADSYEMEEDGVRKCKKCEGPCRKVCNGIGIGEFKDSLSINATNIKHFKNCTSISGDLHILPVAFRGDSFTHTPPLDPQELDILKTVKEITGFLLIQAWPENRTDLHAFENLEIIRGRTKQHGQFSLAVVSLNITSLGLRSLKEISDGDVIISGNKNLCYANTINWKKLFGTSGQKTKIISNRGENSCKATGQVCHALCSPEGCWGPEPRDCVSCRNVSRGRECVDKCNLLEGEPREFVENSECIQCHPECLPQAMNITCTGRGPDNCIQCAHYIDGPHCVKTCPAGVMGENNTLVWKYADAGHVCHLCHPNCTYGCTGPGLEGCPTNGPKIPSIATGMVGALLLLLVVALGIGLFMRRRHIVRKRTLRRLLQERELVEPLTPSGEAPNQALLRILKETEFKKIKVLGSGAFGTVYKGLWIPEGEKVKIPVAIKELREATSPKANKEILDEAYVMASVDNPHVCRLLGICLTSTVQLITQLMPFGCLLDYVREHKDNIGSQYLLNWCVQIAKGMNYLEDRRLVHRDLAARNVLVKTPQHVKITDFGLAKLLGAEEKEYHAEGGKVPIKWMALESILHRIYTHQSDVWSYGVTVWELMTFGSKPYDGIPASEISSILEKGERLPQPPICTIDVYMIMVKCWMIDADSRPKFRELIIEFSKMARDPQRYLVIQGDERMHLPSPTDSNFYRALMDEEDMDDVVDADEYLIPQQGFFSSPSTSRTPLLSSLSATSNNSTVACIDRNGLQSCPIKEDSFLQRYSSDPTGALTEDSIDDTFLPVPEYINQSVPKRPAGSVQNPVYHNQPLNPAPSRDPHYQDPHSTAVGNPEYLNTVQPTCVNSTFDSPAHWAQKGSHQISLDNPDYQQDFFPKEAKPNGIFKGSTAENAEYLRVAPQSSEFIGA
Procedure: as §1, §2, §3

EGFR (T790M) = target: T3, EGFR (T790M) (Homo sapiens, UniProt P00533, T790M); experiment: as above; assay type: binding; details: 1 μM in DMSO
T3 construct: purchased DiscoverX
T3 sequence (P00533 25-1210 T790M): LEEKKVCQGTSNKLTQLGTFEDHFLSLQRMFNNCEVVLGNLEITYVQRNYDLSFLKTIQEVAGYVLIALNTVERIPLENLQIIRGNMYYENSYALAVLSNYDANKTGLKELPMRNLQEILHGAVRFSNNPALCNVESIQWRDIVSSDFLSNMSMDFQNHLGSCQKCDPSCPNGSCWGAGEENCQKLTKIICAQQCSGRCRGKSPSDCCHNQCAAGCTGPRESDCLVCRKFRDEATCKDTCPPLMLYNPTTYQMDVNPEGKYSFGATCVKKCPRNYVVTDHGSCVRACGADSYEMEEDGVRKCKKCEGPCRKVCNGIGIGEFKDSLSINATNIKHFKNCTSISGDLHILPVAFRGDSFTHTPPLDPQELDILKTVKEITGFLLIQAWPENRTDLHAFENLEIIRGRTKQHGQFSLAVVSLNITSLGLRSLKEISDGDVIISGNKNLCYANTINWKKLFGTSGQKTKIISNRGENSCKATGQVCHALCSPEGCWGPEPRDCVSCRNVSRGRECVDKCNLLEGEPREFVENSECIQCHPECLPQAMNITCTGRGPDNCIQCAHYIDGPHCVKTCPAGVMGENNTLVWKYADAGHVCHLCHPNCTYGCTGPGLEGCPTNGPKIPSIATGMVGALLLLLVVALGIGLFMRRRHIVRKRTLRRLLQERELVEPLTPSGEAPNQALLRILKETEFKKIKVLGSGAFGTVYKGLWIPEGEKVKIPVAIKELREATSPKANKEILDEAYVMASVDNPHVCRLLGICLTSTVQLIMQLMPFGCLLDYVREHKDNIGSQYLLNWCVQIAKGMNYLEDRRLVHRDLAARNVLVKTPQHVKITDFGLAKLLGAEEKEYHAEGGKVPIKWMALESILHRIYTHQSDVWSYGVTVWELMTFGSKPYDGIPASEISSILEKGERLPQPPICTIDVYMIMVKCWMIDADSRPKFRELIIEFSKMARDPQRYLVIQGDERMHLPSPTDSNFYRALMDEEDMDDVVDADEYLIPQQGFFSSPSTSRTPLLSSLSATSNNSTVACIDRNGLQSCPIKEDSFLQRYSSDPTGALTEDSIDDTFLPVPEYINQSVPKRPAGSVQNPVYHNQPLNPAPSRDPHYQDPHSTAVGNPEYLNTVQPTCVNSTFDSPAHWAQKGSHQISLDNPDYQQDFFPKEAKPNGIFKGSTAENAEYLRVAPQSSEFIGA
Procedure: as §1, §2, §3

EGFR (G719S) = target: T4, EGFR (G719S) (Homo sapiens, UniProt P00533, G719S); experiment: as above; assay type: binding; details: 1 μM in DMSO
T4 construct: purchased DiscoverX
Procedure: as §1, §2, §3

EGFR(S752-I759del) = target: T5, EGFR(S752-I759del) (Homo sapiens, UniProt P00533, DEL752-759); experiment: as above; assay type: binding; details: 1 μM in DMSO
T5 construct: purchased DiscoverX
Procedure: as §1, §2, §3

EGFR (E746-A750del) = target: T6, EGFR (E746-A750del) (Homo sapiens, UniProt P00533, DEL746-750); experiment: as above; assay type: binding; details: 1 μM in DMSO
T6 construct: purchased DiscoverX
Procedure: as §1, §2, §3

[1] = test system: EGFR (L747-T751del, Sins); experiment: as above; assay type: binding; details: 1 μM in DMSO
Procedure: as §1, §2, §3

[2] = target: T7, EGFR (L747-S752del, P753S) (Homo sapiens, UniProt P00533, DEL747-752/P753S); experiment: as above; assay type: binding; details: 1 μM in DMSO
T7 construct: purchased DiscoverX
T7 sequence (P00533 with tags, fused parts or gaps DEL747-752/P753S): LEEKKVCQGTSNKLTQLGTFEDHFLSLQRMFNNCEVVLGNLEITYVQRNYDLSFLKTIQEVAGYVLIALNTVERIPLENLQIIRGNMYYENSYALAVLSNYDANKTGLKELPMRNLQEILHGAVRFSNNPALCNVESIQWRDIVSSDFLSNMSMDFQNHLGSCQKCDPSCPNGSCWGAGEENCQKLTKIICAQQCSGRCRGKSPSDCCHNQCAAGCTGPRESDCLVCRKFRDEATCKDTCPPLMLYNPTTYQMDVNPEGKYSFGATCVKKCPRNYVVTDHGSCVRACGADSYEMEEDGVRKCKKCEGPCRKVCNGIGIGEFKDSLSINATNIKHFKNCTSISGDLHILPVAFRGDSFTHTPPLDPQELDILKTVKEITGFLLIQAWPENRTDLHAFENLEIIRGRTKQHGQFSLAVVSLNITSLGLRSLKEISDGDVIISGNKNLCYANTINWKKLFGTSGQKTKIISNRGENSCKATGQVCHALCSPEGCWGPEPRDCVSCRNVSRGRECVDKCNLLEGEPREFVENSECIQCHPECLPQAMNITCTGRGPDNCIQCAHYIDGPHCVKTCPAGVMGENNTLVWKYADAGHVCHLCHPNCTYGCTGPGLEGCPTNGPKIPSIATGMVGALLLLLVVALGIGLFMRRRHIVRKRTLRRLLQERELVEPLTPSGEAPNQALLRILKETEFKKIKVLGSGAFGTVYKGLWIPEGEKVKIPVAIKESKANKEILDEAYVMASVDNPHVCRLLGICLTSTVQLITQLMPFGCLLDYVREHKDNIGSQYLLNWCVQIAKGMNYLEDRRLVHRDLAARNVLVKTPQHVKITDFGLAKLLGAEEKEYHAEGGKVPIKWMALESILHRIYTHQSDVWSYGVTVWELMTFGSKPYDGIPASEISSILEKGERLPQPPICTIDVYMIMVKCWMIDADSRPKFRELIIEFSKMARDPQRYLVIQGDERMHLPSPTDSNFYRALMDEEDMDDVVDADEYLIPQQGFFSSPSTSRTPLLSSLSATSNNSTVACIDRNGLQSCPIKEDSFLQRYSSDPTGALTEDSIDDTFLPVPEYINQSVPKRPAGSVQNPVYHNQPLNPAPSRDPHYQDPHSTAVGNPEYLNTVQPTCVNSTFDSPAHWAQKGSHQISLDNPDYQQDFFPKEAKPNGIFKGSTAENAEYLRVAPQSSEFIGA
Procedure: as §1, §2, §3

EGFR (L861Q) = target: T8, EGFR (L861Q) (Homo sapiens, UniProt P00533, L861Q); experiment: as above; assay type: binding; details: 1 μM in DMSO
T8 construct: purchased DiscoverX
Procedure: as §1, §2, §3

EGFR (L858R) = target: T9, EGFR (L858R) (Homo sapiens, UniProt P00533, L858R); experiment: as above; assay type: binding; details: 1 μM in DMSO
T9 construct: purchased DiscoverX
Procedure: as §1, §2, §3

[3] = target: T10, EGFR (L747-E749del, A750P) (Homo sapiens, UniProt P00533, A750P/DEL747-749); experiment: as above; assay type: binding; details: 1 μM in DMSO
T10 construct: purchased DiscoverX
T10 sequence (P00533 with tags, fused parts or gaps DEL747-749/A750P): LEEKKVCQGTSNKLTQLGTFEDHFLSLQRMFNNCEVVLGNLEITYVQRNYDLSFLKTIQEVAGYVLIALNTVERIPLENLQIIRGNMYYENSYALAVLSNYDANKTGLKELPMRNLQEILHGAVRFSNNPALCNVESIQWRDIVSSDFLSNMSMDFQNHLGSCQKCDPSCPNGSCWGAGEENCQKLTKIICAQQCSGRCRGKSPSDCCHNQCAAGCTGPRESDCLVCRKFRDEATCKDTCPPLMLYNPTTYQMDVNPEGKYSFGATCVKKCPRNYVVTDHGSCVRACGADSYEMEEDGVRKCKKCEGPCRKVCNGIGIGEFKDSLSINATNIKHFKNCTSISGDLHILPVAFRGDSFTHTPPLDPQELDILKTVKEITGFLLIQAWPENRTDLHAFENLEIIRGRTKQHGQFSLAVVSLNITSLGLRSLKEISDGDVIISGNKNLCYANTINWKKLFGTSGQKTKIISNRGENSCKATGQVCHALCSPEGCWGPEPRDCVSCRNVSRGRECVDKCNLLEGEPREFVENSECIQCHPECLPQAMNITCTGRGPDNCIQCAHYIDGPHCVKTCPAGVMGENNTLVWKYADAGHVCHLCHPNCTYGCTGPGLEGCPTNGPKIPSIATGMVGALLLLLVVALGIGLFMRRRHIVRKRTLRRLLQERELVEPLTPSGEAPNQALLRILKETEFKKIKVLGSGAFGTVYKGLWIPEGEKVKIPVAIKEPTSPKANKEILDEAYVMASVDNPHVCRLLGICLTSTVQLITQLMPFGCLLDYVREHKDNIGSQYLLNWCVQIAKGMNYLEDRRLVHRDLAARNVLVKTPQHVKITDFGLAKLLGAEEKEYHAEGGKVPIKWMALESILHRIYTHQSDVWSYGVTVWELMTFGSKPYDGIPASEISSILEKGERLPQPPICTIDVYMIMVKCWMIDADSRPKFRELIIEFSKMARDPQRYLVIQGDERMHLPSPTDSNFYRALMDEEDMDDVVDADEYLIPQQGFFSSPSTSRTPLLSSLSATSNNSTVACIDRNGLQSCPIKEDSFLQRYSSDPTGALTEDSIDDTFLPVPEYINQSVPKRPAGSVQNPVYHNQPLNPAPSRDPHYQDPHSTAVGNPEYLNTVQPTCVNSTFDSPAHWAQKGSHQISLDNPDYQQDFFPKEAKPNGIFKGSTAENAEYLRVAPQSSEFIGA
Procedure: as §1, §2, §3

EGFR (L858R, T790M) = target: T11, EGFR (L858R, T790M) (Homo sapiens, UniProt P00533, L858R/T790M); experiment: as above; assay type: binding; details: 1 μM in DMSO
T11 construct: purchased DiscoverX
Procedure: as §1, §2, §3

BaF3-EGFR (WT) cells = experiment: Inhibitory activity on Ba/F3 cell proliferation (CellTiter-Glo, 72 hours); assay type: cell-based; details: Ba/F3 cells expressing EGFR WT
Outline: (§4)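 Ba/F3 cells expressing wild-type EGFR or EGFR Del19/T790M/C797S, 3×10^3 per well, exposed 72 h at 37 °C to compound at 12 threefold dilutions, 0.00005-10 μM final. Viability by CellTiter-Glo 2.0; GI50 derived from growth relative to DMSO-treated cells.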

[4] = test system: BaF3-EGFR (Del19/T790M/C797S) cells; experiment: as above; assay type: cell-based; details: Ba/F3 cells expressing EGFR Del19/T790M/C797S
Outline: as §4

In the case of `COc1cc(N2CCC(N3CCN(C)CC3)CC2)c(C)cc1Nc1nc(Nc2ccc3nccnc3c2P(C)(C)=O)c2cc[nH]c2n1` [Example 54, (6-((2-((2-methoxy-5-methyl-4-(4-(4-methyl-piperazin-1-yl)piperidin-1-yl)phenyl)amino)-7H-pyrrolo[2,3-d]pyrimidin-4-yl)amino)quinoxalin-5-yl)dimethyl-phosphine oxide], the IC50 (EGFR Del19/T790M/C797S) is reported as ≤ 0.05 µM, the remaining binding at 1 µM (EGFR (G719C)) is reported as < 30% and the remaining binding at 1 µM (EGFR) is reported as < 30%. For the same compound, the remaining binding at 1 µM (EGFR (T790M)) was < 30%, the remaining binding at 1 µM (EGFR (G719S)) was < 30% and the remaining binding at 1 µM (EGFR(S752-I759del)) was < 30%. For the same compound, the remaining binding at 1 µM (EGFR (E746-A750del)) was < 30%, the “control percentage (% control)” value [1] was < 30% and the remaining binding at 1 µM [2] was < 30%. The remaining binding at 1 µM (EGFR (L861Q)) was < 30%, the remaining binding at 1 µM (EGFR (L858R)) was < 30% and the remaining binding at 1 µM [3] was < 30%. For the same compound, the remaining binding at 1 µM (EGFR (L858R, T790M)) was < 30%, the GI50 (BaF3-EGFR (WT) cells) was > 0.1 µM and the GI50 [4] was ≤ 0.05 µM.
